Consider 15 compounds from US11932628B2, “Selective small molecule peptidomimetic melanocortin ligands” (REGENTS OF THE UNIVERSITY OF MINNESOTA, priority 2021, dated 2024).

The structures appear in SMILES notation.

The target in experiment [1] is T1, mMC4R (Mus musculus, UniProt P56450). Briefly: Schild analysis of antagonist activity at mMC4R.
Protocol: The antagonist activity may also be reported as a Ki value, which is the inverse Log of pA2. […] Compounds were dissolved in DMSO at a stock concentration of 10^−2 M and stored at −20° C. until assayed. HEK-293 cells stably expressing the selected melanocortin receptors were transiently transfected with 4 μg of CRE/β-galactosidase reporter gene. Briefly, 5000-15000 post transfection cells were plated into collagen treated 96-well plates (Nunc) and incubated overnight. […] The assay media was aspirated, and 50 μL of lysis buffer (250 mM Tris-HCl pH=8.0 and 0.1% Triton X-100) was added. The plates were stored at −80° C. overnight. The plates containing the cell lysates were thawed the following day. Aliquots of 10 μL were taken from each well and transferred to another 96-well plate for relative protein determination. To the cell lysate plates, 40 μL of phosphate-buffered saline with 0.5% BSA was added to each well. Subsequently, 150 μL of substrate buffer (60 mM sodium phosphate, 1 mM MgCl2, 10 mM KCl, 5 mM β-mercaptoethanol, 2 mg/mL ONPG) was added to each well and the plates were incubated at 37° C. The sample absorbance, OD405, was measured using a 96-well plate reader (Molecular Devices). The relative protein was determined by adding 200 μL of 1:5 dilution BioRad G250 protein dye:water to the 10 μL of cell lysate sample taken previously, and the OD595 was measured on a 96-well plate reader (Molecular Devices). Data points were normalized to forskolin and the relative protein content were used as positive controls. The EC50 values represent the mean of three or more independent experiments. The EC50 estimates, and their associated standard errors of the mean, were determined by fitting the data to a nonlinear least-squares analysis using the PRISM program (v4.0, GraphPad Inc.).
The reported values are on a log scale. In order to put them into perspective, their approximate binding disassociation constants, Ki values, can be calculated through the following relationship pA2=−Log10 (Ki).
Experiment [2] concerns the target mMC1R (Mus musculus, UniProt Q01727). Briefly: cAMP based functional bioassay (CRE/β-galactosidase reporter), agonist activity at mMC1R.
Protocol: (§1) The compounds were evaluated using a whole cell assay.
(§2) Compounds were dissolved in DMSO at a stock concentration of 10^−2 M and stored at −20° C. until assayed. HEK-293 cells stably expressing the selected melanocortin receptors were transiently transfected with 4 μg of CRE/β-galactosidase reporter gene. Briefly, 5000-15000 post transfection cells were plated into collagen treated 96-well plates (Nunc) and incubated overnight. […] The assay media was aspirated, and 50 μL of lysis buffer (250 mM Tris-HCl pH=8.0 and 0.1% Triton X-100) was added. The plates were stored at −80° C. overnight. The plates containing the cell lysates were thawed the following day. Aliquots of 10 μL were taken from each well and transferred to another 96-well plate for relative protein determination. To the cell lysate plates, 40 μL of phosphate-buffered saline with 0.5% BSA was added to each well. Subsequently, 150 μL of substrate buffer (60 mM sodium phosphate, 1 mM MgCl2, 10 mM KCl, 5 mM β-mercaptoethanol, 2 mg/mL ONPG) was added to each well and the plates were incubated at 37° C. The sample absorbance, OD405, was measured using a 96-well plate reader (Molecular Devices). The relative protein was determined by adding 200 μL of 1:5 dilution BioRad G250 protein dye:water to the 10 μL of cell lysate sample taken previously, and the OD595 was measured on a 96-well plate reader (Molecular Devices). Data points were normalized to forskolin and the relative protein content were used as positive controls. The EC50 values represent the mean of three or more independent experiments. The EC50 estimates, and their associated standard errors of the mean, were determined by fitting the data to a nonlinear least-squares analysis using the PRISM program (v4.0, GraphPad Inc.).
(§3) The results are tabulated in the form of EC50 values. In the case where the particular receptor was not activated to full activity at 100,000 nM, then the relative activity was reported.
Experiment [3] has as its target mMC5R (Mus musculus, UniProt P41149). Put plainly: cAMP based functional bioassay (CRE/β-galactosidase reporter), agonist activity at mMC5R.
Protocol: as §1, §2, §3
Experiment [4] concerns the target mMC3R (Mus musculus, UniProt P33033). Briefly: cAMP based functional bioassay (CRE/β-galactosidase reporter), agonist activity at mMC3R. Particulars: for mMC3R Activity @ 10 μM (class) / mMC3R Activity @ 10 μM (relative activity, percent): reported where receptor not activated to full activity.
Protocol: as §1, §2, §3
For experiment [5], the target named is T1, mMC4R. Put plainly: cAMP based functional bioassay (CRE/β-galactosidase reporter), agonist activity at mMC4R. Particulars: for mMC4R Activity @ 10 μM (class) / mMC4R Activity @ 10 μM (relative activity, percent): reported where receptor not activated to full activity. Further details: Emax: dose or concentration left out as unconfirmed.
Protocol: as §1, §2, §3
The mark [6] stands for this setting: reported where receptor not activated to full activity.

T1 sequence (P56450 whole entry): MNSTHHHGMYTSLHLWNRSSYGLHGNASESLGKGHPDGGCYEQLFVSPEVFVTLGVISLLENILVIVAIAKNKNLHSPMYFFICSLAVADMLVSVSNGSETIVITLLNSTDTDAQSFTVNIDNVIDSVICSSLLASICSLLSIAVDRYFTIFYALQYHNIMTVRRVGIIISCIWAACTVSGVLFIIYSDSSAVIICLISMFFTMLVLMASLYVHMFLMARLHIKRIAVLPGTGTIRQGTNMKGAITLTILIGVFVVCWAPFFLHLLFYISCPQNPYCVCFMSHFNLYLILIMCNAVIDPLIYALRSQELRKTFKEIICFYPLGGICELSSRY
mMC5R, sequence (P41149 whole entry): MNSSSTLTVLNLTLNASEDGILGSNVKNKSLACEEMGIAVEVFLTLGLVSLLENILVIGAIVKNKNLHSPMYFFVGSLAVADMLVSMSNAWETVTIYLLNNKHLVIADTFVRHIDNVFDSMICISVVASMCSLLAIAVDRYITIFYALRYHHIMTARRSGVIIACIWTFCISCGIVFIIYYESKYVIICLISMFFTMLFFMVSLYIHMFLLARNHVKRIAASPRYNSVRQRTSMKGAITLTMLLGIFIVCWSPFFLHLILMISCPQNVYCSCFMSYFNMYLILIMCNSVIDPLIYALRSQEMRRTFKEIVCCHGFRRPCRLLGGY
mMC3R, sequence (P33033 whole entry): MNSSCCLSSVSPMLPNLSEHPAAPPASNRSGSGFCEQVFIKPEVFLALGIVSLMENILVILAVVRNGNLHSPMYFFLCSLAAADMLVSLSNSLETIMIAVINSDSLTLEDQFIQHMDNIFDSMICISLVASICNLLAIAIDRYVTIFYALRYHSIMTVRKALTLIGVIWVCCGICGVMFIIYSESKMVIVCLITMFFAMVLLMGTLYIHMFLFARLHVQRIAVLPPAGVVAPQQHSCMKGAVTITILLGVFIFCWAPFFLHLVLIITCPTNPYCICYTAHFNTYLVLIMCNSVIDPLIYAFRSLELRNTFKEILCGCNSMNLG
mMC1R, sequence (Q01727 whole entry): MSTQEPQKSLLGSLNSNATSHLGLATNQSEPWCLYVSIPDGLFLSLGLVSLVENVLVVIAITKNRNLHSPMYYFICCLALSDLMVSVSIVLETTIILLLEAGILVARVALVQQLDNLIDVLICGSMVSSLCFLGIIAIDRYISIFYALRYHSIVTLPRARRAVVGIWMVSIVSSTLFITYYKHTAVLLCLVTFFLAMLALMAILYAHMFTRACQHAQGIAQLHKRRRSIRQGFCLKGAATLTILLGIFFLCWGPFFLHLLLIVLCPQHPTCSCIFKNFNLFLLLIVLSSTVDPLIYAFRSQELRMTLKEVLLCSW

By Kb is commonly meant the equilibrium dissociation constant of an antagonist, usually derived from a functional assay. As usually defined, the EC50 is the concentration giving half of the maximal effect. The compound `CC(C)[C@@H]1CNC(=N)N1C[C@@H]1CCCN1C[C@@H](CC1CCCCC1)N1C[C@@H]([C@@H](C)O)N(CC2CCC(C(C)(C)C)CC2)C1=N` (stereo partly drawn) [TPI 2509-23, (R)-1-((S)-3-((4-(tert-butyl)cyclohexyl)methyl)-1-((R)-1-cyclohexyl-3-((S)-2-(((R)-2-imino-5-isopropylimidazolidin-1-yl)methyl)pyrrolidin-1-yl)propan-2-yl)-2-iminoimidazolidin-4-yl)ethanol] registered a Kb in experiment [1] of 1260 nM. Further, the values for the EC50 in experiment [2], in experiment [3] and in experiment [4] were 300 ± 120 nM, 150 ± 20 nM and 220 ± 30 nM, respectively. In addition, in experiment [5], the “mMC4R Activity @ 10 μM (class)” value is listed as “A (A: <50%)”. In addition, the “mMC4R Activity @ 10 μM (relative activity, percent)” value in experiment [5] is given as 41%.

The compound `CCC[C@@H]1CN([C@H](CC2CCCCC2)CN2CCC[C@H]2CN2C(=N)NC[C@H]2C(C)C)C(=N)N1CC1CCC(C(C)(C)C)CC1` (stereo partly drawn) [TPI 2509-26, (R)-3-((4-(tert-butyl)cyclohexyl)methyl)-1-((R)-1-cyclohexyl-3-((S)-2-(((R)-2-imino-5-isopropylimidazolidin-1-yl)methyl)pyrrolidin-1-yl)propan-2-yl)-4-propylimidazolidin-2-imine] returned a Kb in experiment [1] of 1580 nM. Also, the “mMC1R Activity @ 10 μM (class)” value in experiment [2] (setting [6]) is “B (B: >51%)”. Besides, the EC50 in experiment [3] turned out to be 540 ± 50 nM; in experiment [4], 350 ± 20 nM. For the same compound, the “mMC4R Activity @ 10 μM (class)” value in experiment [5] was “A (A: <50%)”. For the same compound, in experiment [5], the “mMC4R Activity @ 10 μM (relative activity, percent)” value is 50%.

The term Ki denotes a dissociation constant, usually derived from enzyme kinetics or from competition with a known ligand. In experiment [1], `CC(C)C[C@@H]1CNC(=N)N1C[C@@H]1CCCN1C[C@@H](Cc1ccccc1)N1C[C@@H]([C@@H](C)O)N(CC2CCC(C(C)(C)C)CC2)C1=N` (stereo partly drawn) [TPI 2509-14, (R)-1-((S)-3-((4-(tert-butyl)cyclohexyl)methyl)-2-imino-1-((R)-1-((S)-2-(((R)-2-imino-5-isobutylimidazolidin-1-yl)methyl)pyrrolidin-1-yl)-3-phenylpropan-2-yl)imidazolidin-4-yl)ethanol] had a Kb of 100 nM and a Ki of 100 nM. In addition, the “mMC4R Antagonist pA2” value in experiment [1] (Schild analysis) stood at 7.0±0.7. In addition, in experiment [2] (setting [6]), the “mMC1R Activity @ 10 μM (class)” value is reported as “B (B: >51%)” and the “mMC1R Activity @ 10 μM (relative activity, percent)” value stood at 58%. In addition, a half-maximal response in experiment [3] (EC50) required 530 ± 50 nM. Also, in experiment [4], the EC50 was found to be 310 ± 60 nM and the “EC50 values at the melanocortin-3 receptor (in words)” value was “nanomolar”. Besides, in experiment [5] (read-out: maximal activation at the melanocortin-4 receptor), the Emax was more than 20%. For the same compound, in experiment [5], the “mMC4R Activity @ 10 μM (class)” value is “A (A: <50%)”.

For the compound `CCC[C@@H]1CN([C@H](CC2CCCCC2)CN2CCC[C@H]2CN2C(=N)NC[C@H]2C(C)C)C(=N)N1CCCC(C)C` [TPI 2509-27], in experiment [2] (setting [6]), the “mMC1R Activity @ 10 μM (class)” value was “B (B: >51%)”. The same compound showed an EC50 in experiment [3] of 1040 ± 150 nM. In experiment [4], the “mMC3R Activity @ 10 μM (class)” value is “B (B: >51%)”. In experiment [5], the “mMC4R Activity @ 10 μM (class)” value was “A (A: <50%)” and the “mMC4R Activity @ 10 μM (relative activity, percent)” value is 40%.

On to `CCC[C@@H]1CN([C@H](Cc2ccccc2)CN2CCC[C@H]2CN2C(=N)NC[C@H]2C(C)C)C(=N)N1CC12CC3CC(CC(C3)C1)C2` [TPI 2509-34, (R)-3-(adamantan-1-ylmethyl)-1-((R)-1-((S)-2-(((R)-2-imino-5-isopropylimidazolidin-1-yl)methyl)pyrrolidin-1-yl)-3-phenylpropan-2-yl)-4-propylimidazolidin-2-imine], for which the EC50 was 6700 ± 4700 nM in experiment [2], 6600 ± 5740 nM in experiment [3], 2000 ± 850 nM in experiment [4] and 1400 ± 760 nM in experiment [5].

On to `CCC[C@@H]1CN([C@H](CC2CCCCC2)CN2CCC[C@H]2CN2C(=N)NC[C@H]2CC(C)C)C(=N)N1CCCC(C)C` [TPI 2509-9], for which the EC50 in experiment [2] was 2300 ± 90 nM; in experiment [3] it was 1800 ± 130 nM; in experiment [5], 6700 ± 2400 nM. Moreover, the “mMC3R Activity @ 10 μM (class)” value in experiment [4] is listed as “B (B: >51%)”. Also, the “mMC3R Activity @ 10 μM (relative activity, percent)” value in experiment [4] was determined as 58%.

For the compound `CC(C)[C@@H]1CNC(=N)N1C[C@@H]1CCCN1C[C@@H](CC1CCCCC1)N1C[C@@H](C(C)C)N(CC2CCC(C(C)(C)C)CC2)C1=N` (stereo partly drawn) [TPI 2509-29, (R)-3-((4-(tert-butyl)cyclohexyl)methyl)-1-((R)-1-cyclohexyl-3-((S)-2-(((R)-2-imino-5-isopropylimidazolidin-1-yl)methyl)pyrrolidin-1-yl)propan-2-yl)-4-isopropylimidazolidin-2-imine], the EC50 in experiment [2] was 290 ± 20 nM; in experiment [3] it was 510 ± 50 nM; in experiment [4] it was 4300 ± 3300 nM. The “mMC4R Activity @ 10 μM (class)” value in experiment [5] was “A (A: <50%)”. Further, in experiment [5], the “mMC4R Activity @ 10 μM (relative activity, percent)” value is listed as 28%.

Take `CC(C)[C@@H]1CNC(=N)N1C[C@@H]1CCCN1C[C@@H](CC1CCCCC1)N1C[C@@H](C(C)C)N(CC23CC4CC(CC(C4)C2)C3)C1=N` [TPI 2509-28, (R)-3-(adamantan-1-ylmethyl)-1-((R)-1-cyclohexyl-3-((S)-2-(((R)-2-imino-5-isopropylimidazolidin-1-yl)methyl)pyrrolidin-1-yl)propan-2-yl)-4-isopropylimidazolidin-2-imine]: the values for the half-maximal effective concentration (EC50) in experiment [2], in experiment [3] and in experiment [4] were 300 ± 30 nM, 580 ± 160 nM and 3700 ± 880 nM, respectively. The “mMC4R Activity @ 10 μM (class)” value in experiment [5] is “A (A: <50%)”. Moreover, the “mMC4R Activity @ 10 μM (relative activity, percent)” value in experiment [5] was determined as 40%.

For the compound `CCC[C@@H]1CN([C@H](CC2CCCCC2)CN2CCC[C@H]2CN2C(=N)NC[C@H]2C(C)C)C(=N)N1CC12CC3CC(CC(C3)C1)C2` [TPI 2509-25, (R)-3-(adamantan-1-ylmethyl)-1-((R)-1-cyclohexyl-3-((S)-2-(((R)-2-imino-5-isopropylimidazolidin-1-yl)methyl)pyrrolidin-1-yl)propan-2-yl)-4-propylimidazolidin-2-imine], the figures for the EC50 in experiment [2], in experiment [3] and in experiment [4] were 550 nM, 590 ± 180 nM and 2800 ± 1800 nM, respectively. In addition, in experiment [5], the “mMC4R Activity @ 10 μM (class)” value is recorded as “A (A: <50%)”. The “mMC4R Activity @ 10 μM (relative activity, percent)” value in experiment [5] amounted to 45%.

`CC(C)C[C@@H]1CNC(=N)N1C[C@@H]1CCCN1C[C@@H](Cc1ccccc1)N1C[C@@H](C(C)C)N(CC23CC4CC(CC(C4)C2)C3)C1=N` [TPI 2509-19, (R)-3-(adamantan-1-ylmethyl)-1-((R)-1-((S)-2-(((R)-2-imino-5-isobutylimidazolidin-1-yl)methyl)pyrrolidin-1-yl)-3-phenylpropan-2-yl)-4-isopropylimidazolidin-2-imine]: the EC50 in experiment [2] was 15500 ± 14000 nM; in experiment [3], 440 ± 110 nM; in experiment [5], 8200 ± 3550 nM. Besides, in experiment [4], the “mMC3R Activity @ 10 μM (class)” value is reported as “B (B: >51%)”. Further, the “mMC3R Activity @ 10 μM (relative activity, percent)” value in experiment [4] is 67%.

On to `CC(C)CCCN1C(=N)N([C@H](CC2CCCCC2)CN2CCC[C@H]2CN2C(=N)NC[C@H]2CC(C)C)C[C@H]1[C@H](C)O` [TPI 2509-6], for which, in experiment [2], the EC50 came to 7300 ± 4400 nM. In experiment [3], this compound returned an EC50 of 630 ± 50 nM. In experiment [4], the “mMC3R Activity @ 10 μM (class)” value was “B (B: >51%)” and the “mMC3R Activity @ 10 μM (relative activity, percent)” value is listed as 58%. Moreover, in experiment [5], the “mMC4R Activity @ 10 μM (class)” value is “A (A: <50%)”.

In experiment [2], `CC[C@H](C)[C@@H]1CNC(=N)N1C[C@@H]1CCCN1C[C@@H](Cc1ccccc1)N1CC(Cc2ccc(O)cc2)N(CC2CCC(C(C)(C)C)CC2)C1=N` (stereo partly drawn) [TPI 2509-40, 4-((1-((R)-1-((S)-2-(((R)-5-((S)-sec-butyl)-2-iminoimidazolidin-1-yl)methyl)pyrrolidin-1-yl)-3-phenylpropan-2-yl)-3-((4-(tert-butyl)cyclohexyl)methyl)-2-iminoimidazolidin-4-yl)methyl)phenol] showed an EC50 of 290 ± 20 nM. Moreover, it took 380 ± 50 nM to reach a half-maximal effect in experiment [3] (EC50). For the same compound, in experiment [4], the “mMC3R Activity @ 10 μM (class)” value is on record as “B (B: >51%)” and the “mMC3R Activity @ 10 μM (relative activity, percent)” value came to 65%. In experiment [5], the “mMC4R Activity @ 10 μM (class)” value is recorded as “A (A: <50%)” and the “mMC4R Activity @ 10 μM (relative activity, percent)” value turned out to be 23%.

The compound `CCC[C@@H]1CN([C@H](CC2CCCCC2)CN2CCC[C@H]2CN2C(=N)NC[C@H]2CC(C)C)C(=N)N1CC1CCC(C(C)(C)C)CC1` (stereo partly drawn) [TPI 2509-8, (R)-3-((4-(tert-butyl)cyclohexyl)methyl)-1-((R)-1-cyclohexyl-3-((S)-2-(((R)-2-imino-5-isobutylimidazolidin-1-yl)methyl)pyrrolidin-1-yl)propan-2-yl)-4-propylimidazolidin-2-imine] yielded an EC50 in experiment [2] of 500 ± 50 nM. This compound also yielded an EC50 in experiment [3] of 530 ± 50 nM. Further, in experiment [4], the “mMC3R Activity @ 10 μM (class)” value is on record as “B (B: >51%)” and the “mMC3R Activity @ 10 μM (relative activity, percent)” value is given as 75%. In addition, in experiment [5], the “mMC4R Activity @ 10 μM (class)” value was “B (B: >51%)” and the “mMC4R Activity @ 10 μM (relative activity, percent)” value amounted to 65%.

As for `CCC[C@@H]1CN([C@H](Cc2ccccc2)CN2CCC[C@H]2CN2C(=N)NC[C@H]2CC(C)C)C(=N)N1CC12CC3CC(CC(C3)C1)C2` [TPI 2509-16, (R)-3-(adamantan-1-ylmethyl)-1-((R)-1-((S)-2-(((R)-2-imino-5-isobutylimidazolidin-1-yl)methyl)pyrrolidin-1-yl)-3-phenylpropan-2-yl)-4-propylimidazolidin-2-imine], the figures for the EC50 in experiment [2], in experiment [3] and in experiment [5] were 7000 ± 6100 nM, 610 ± 160 nM and 1330 ± 510 nM, respectively. The “mMC3R Activity @ 10 μM (class)” value in experiment [4] is recorded as “B (B: >51%)”. Also, the “mMC3R Activity @ 10 μM (relative activity, percent)” value in experiment [4] is recorded as 74%.

As to `CC(C)[C@@H]1CNC(=N)N1C[C@@H]1CCCN1C[C@@H](Cc1ccccc1)N1C[C@@H](C(C)C)N(CC23CC4CC(CC(C4)C2)C3)C1=N` [TPI 2509-37, (R)-3-(adamantan-1-ylmethyl)-1-((R)-1-((S)-2-(((R)-2-imino-5-isopropylimidazolidin-1-yl)methyl)pyrrolidin-1-yl)-3-phenylpropan-2-yl)-4-isopropylimidazolidin-2-imine], the EC50 worked out at 47800 ± 23100 nM in experiment [2], 660 ± 130 nM in experiment [3] and 4000 ± 1900 nM in experiment [4]. In addition, the “mMC4R Activity @ 10 μM (class)” value in experiment [5] is recorded as “B (B: >51%)”. Further, in experiment [5], the “mMC4R Activity @ 10 μM (relative activity, percent)” value came out at 54%.
